# Assay results as given in US8916501B2, “Herbicidal compositions” (BASF SE, priority 2010, dated 2014).
# Assays:
# Settings in all cases: scale 0 to 100
# [1] = tested on: ORYSA; experiment: greenhouse post-emergence treatment, damage to crop plant ORYSA; assay type: in vivo, Oryza sativa
# From the text: (§1) The seeds of the test plants were sown separately for each species. For the post-emergence treatment, the test plants were first grown to a height of 1 to 15 cm, depending on the plant habit, and only then treated with the active ingredients which had been suspended or emulsified in water. For this purpose, the test plants were either sown directly and grown in the same containers, or they were first grown separately as seedlings and transplanted into the test containers a few days prior to treatment. The respective benzoxazinone of formula I was formulated as a 5% by weight strength emulsion concentrate, and the safener of formula II as a 5% by weight emulsion concentrate. Optional component C can be used in its appropriate available formulation type. The benzoxazinone of formula I, the safener of formula II, and optional component C were introduced to the spray liquid with the amount of solvent system used for applying the active compound. The test period extended over 20 days. During this time, the plants were tended, and their response to the treatments with active compound was evaluated. Depending on the species, the plants were kept at 10-25° C. or 20-35° C. During the test period the plants were tended, and their response to the individual treatments was evaluated. Evaluation was carried out using a scale from 0 to 100. […]
# [2] = tested on: ORYSA; experiment: greenhouse pre-emergence treatment, damage to crop plant ORYSA; assay type: in vivo, Oryza sativa
# From the text: (§2) The seeds of the test plants were sown separately for each species. For the pre-emergence treatment, the active ingredients, which had been suspended or emulsified in water, were applied directly after sowing by means of finely distributing nozzles. The containers were irrigated gently to promote germination and growth and subsequently covered with transparent plastic hoods until the plants had emerged. This cover caused uniform germination of the test plants, unless this has been impaired by the active ingredients. The respective benzoxazinone of formula I was formulated as a 5% by weight strength emulsion concentrate, and the safener of formula II as a 5% by weight emulsion concentrate. Optional component C can be used in its appropriate available formulation type. The benzoxazinone of formula I, the safener of formula II, and optional component C were introduced to the spray liquid with the amount of solvent system used for applying the active compound. The test period extended over 20 days. During this time, the plants were tended, and their response to the treatments with active compound was evaluated. Depending on the species, the plants were kept at 10-25° C. or 20-35° C. During the test period the plants were tended, and their response to the individual treatments was evaluated. Evaluation was carried out using a scale from 0 to 100. 100 means no emergence of the plants, or complete destruction of at least the aerial moieties, and 0 means no damage, or normal course of growth. A good herbicidal activity is given at values of at least 70 and a very good herbicidal activity is given at values of at least 85. A safener action is present if the damage to the crop plant caused by a mixture according to the present invention which contains a benzoxazinone of formula I and a safener of formula II is less than the damage caused when the benzoxazinone of formula I (optionally in mixture with a further herbicide C) according to the present invention is used without the safener of formula II.
# [3] = tested on: ZEAMX; experiment: greenhouse pre-emergence treatment, damage to crop plant ZEAMX; assay type: in vivo, Zea mays
# From the text: as §2
# [4] = tested on: SETFA; experiment: greenhouse pre-emergence treatment, herbicidal action against SETFA; assay type: in vivo, Setaria faberi
# From the text: as §2, with “85.” for “85. A safener action is present if the damage to the crop plant caused by a mixture according to the present invention which contains a benzoxazinone of formula I and a safener of formula II is less than the damage caused when the benzoxazinone of formula I (optionally in mixture with a further herbicide C) according to the present invention is used without the safener of formula II.”
# [5] = tested on: TRZAW; experiment: greenhouse pre-emergence treatment, damage to crop plant TRZAW; assay type: in vivo
# From the text: as §2
# [6] = tested on: SETFA; experiment: greenhouse post-emergence treatment, herbicidal action against SETFA; assay type: in vivo, Setaria faberi
# From the text: as §1
# [7] = Example 4, I.a.35 25 g/ha alone
# [8] = Example 1, I.a.35 50 g/ha alone
# [9] = Example 2, I.a.35 25 g/ha alone
# [10] = Example 3, I.a.35 12.5 g/ha alone
# [11] = Example 4, II.a.12 75 g/ha alone
# [12] = Example 1, II.a.12 150 g/ha alone
# [13] = Example 2, II.a.12 75 g/ha alone
# [14] = Example 3, II.a.12 150 g/ha alone
smiles,measurement,setting,value
"C#CCN1C(=O)C(F)(F)Oc2cc(F)c(-n3c(=O)n(C)c(=S)n(C)c3=O)cc21 [I.a.35, 1,5-dimethyl-6-thioxo-3-(2,2,7-trifluoro-3-oxo-4-(prop-2-ynyl)-3,4-dihydro-2H-benzo[b][1,4]oxazin-6-yl)-1,3,5-triazinane-2,4-dione]",damage to crop plant ORYSA,[1]; [7],60
same,damage to crop plant ORYSA,[2]; [8],65
same,damage to crop plant ORYSA,[2]; [9],40
same,damage to crop plant ORYSA,[2]; [10],30
same,damage to crop plant ZEAMX,[3]; [8],65
same,damage to crop plant ZEAMX,[3]; [9],40
same,damage to crop plant ZEAMX,[3]; [10],25
same,herbicidal action against SETFA,[4]; [8],100
same,herbicidal action against SETFA,[4]; [9],100
same,herbicidal action against SETFA,[4]; [10],90
same,damage to crop plant TRZAW,[5]; [8],65
same,damage to crop plant TRZAW,[5]; [9],60
same,damage to crop plant TRZAW,[5]; [10],45
same,herbicidal action against SETFA,[6]; [7],100
CNC(=O)Nc1ccc(S(=O)(=O)NC(=O)c2ccccc2OC)cc1 [II.a.12],damage to crop plant ORYSA,[1]; [11],0
same,damage to crop plant ORYSA,[2]; [12],0
same,damage to crop plant ORYSA,[2]; [13],0
same,damage to crop plant ORYSA,[2]; [14],0
same,damage to crop plant ZEAMX,[3]; [12],0
same,damage to crop plant ZEAMX,[3]; [13],0
same,damage to crop plant ZEAMX,[3]; [14],0
same,herbicidal action against SETFA,[4]; [12],0
same,herbicidal action against SETFA,[4]; [13],0
same,herbicidal action against SETFA,[4]; [14],0
same,damage to crop plant TRZAW,[5]; [12],0
same,damage to crop plant TRZAW,[5]; [13],0
same,damage to crop plant TRZAW,[5]; [14],0
same,herbicidal action against SETFA,[6]; [11],0
